Reference: paper PMC3070160 (Biochemistry, 2010)

What was measured:
Format in all cases: binding
[1] = target: T1, yCBS (yeast cystathionine β-synthase) (Saccharomyces cerevisiae, UniProt P32582); test: UV-visible spectrum of enzyme as isolated; conditions: internal aldimine with Lys53; covalent
T1 sequence (P32582 1-507): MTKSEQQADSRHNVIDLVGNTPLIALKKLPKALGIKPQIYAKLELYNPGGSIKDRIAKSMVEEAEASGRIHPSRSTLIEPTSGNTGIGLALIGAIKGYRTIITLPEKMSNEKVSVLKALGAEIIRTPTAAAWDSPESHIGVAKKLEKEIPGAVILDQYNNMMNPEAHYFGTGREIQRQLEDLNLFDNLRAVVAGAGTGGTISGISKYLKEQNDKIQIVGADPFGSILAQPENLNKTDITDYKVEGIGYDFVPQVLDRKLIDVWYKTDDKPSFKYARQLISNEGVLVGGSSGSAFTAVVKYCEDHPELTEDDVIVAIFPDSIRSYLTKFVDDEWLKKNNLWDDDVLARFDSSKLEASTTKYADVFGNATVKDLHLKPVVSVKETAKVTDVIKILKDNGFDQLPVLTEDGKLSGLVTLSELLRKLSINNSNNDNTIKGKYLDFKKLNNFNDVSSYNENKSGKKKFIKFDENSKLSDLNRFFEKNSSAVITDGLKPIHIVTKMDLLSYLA

[2] = target: T1, yCBS (yeast cystathionine β-synthase); test: double-mixing stopped-flow, […] nm decay, koff/kon
[3] = target: T1, yCBS (yeast cystathionine β-synthase); test: stopped-flow, aminoacrylate formation at […] nm, hyperbolic fit of kobs

## Cc1ncc(COP(=O)(O)O)c(C=O)c1O [PLP]
[1]
  UV-visible spectrum of enzyme as isolated: protonated Schiff base (internal aldimine) between Lys53 in the active site and the PLP

## N[C@@H](CCS)C(=O)O [L-homocysteine]
[2]
  Kd: 0.37 ± 0.02 mM

## N[C@@H](CO)C(=O)O [L-serine]
[3]
  Kd: 14.4 ± 1.7 mM
